Entries after “also recorded” stand apart in the source; their conditions may differ.
Assays:
HCC = experiment: Animal model for HCC: DEN and NMOR treated Fisher rats plus norfloxacin; type: in vivo, Fisher rat; details: for fibrosis grade: DEN + NMOR + norfloxacin 20 mg/kg per day by gavage, 14 weeks treatment, end at 16th week
Procedure: We chose a Fisher Rat to be our model. We started with 18 Fisher rats, which were 5 weeks old on the beginning of the experiment. We divided them into 3 groups. They were acclimatised for one week before the experiment at room temperature […] and humidity 60%-65%. The first group used 6 Fisher rats as an HCC model. On the day we started we weighed them and determined the exact dose for each rat.
We started with a single dose of DEN (Diethylnitrosamine™, sigma) using 100 mg/kg as single intraperitoneal injection. Then we put NMOR (Nitrosomorpholine™, Sigma) in the concentration of 80 ppm in the water for 14 weeks. The second group, another 6 Fisher rats, got the same HCC model treatment (DEN and NMOR) plus we gavaged them with norfloxacin in the dose of 20 mg/kg per day. The third group, at the same time, was 6 rats with a control of just plain water. We weighed them every other day and stopped treatment on the 14th week, then left them for two more weeks until the 16th week. We noticed the two groups who took the DEN and NMOR didn't increase in weight at the same rate as the control.
When we started our experiment the rats average weights were 212-241 g in the 1st group, 225-260 g and 221-249 g in the 2nd and 3rd groups respectively. At the end of experiment for the groups that took the carcinogenecic treatment average weights were 328-353 g and 330-372 g respectively. For the control group the average weight was 430-478 g. […] Control group: Smooth bright outer surface of the liver.

Hepatocellular carcinoma = experiment: Chloroquine in a rodent model of HCC (DEN and NMOR); type: in vivo, fisher rats; details: for animals that developed evidence of hepatocellular carcinoma: Chloroquine 25 mg/kg/day with DEN and NMOR, weeks 8, 10 and 12 pooled
Procedure: 40 five weeks old male fisher rats were studied. They were divided into 2 groups, Group 1 contained 15 rats who were taking DEN and NMOR alone. […] The rats have been given 100 mg/kg DEN (Diethylnitrosamine) (sigma) once intraperitoneal. Nitosomorpholine (NMOR) was been supplied in water with concentration of 80 ppm.
Liver and blood were collected from the animals after 8, 10 and 12 weeks respectively. […] (Table 2)

[1] = tested on: HUCCT (cholangiocarcinoma); experiment: Cholangiocarcinoma implantation in immunodeficient NOD-SCID mice; type: in vivo; details: for tumour size: after 50 days, compared with control, chloroquine 25 mg/kg in water supply (p<0.001), IRS 954 50 μl i.p. once weekly (p<0.01)
Procedure: 12 NOD-SCID mice were injected intrahepatically with 5×10^6 cells of HUCCT (cholangiocarcinoma). […] After 50 days a mass was found subcutaneously.

[2] = tested on: HuH7 hepatocellular carcinoma cell line; experiment: Cell proliferation in culture (cell counting, Promega proliferation assay), HuH7; type: cell-based; details: FIG. 13A, HuH7, in the presence of cpg
Description: Using different techniques, manual cell counting, nucleo-counter machine and Promega proliferation assay. Using 10^4 […] 96 wells plate treat some of them with cpg (TLR9 stimulator; […] In Huh7, HepG2 and HUCCT

Row | Compound | fibrosis grade (HCC) | fibrosis grade (HCC; listed as Norfloxacin) | HCC development / tumour grade (HCC; DEN + NMOR + norfloxacin group (2nd group)) | liver nodules (HCC; DEN, NMOR and Norfloxacin group versus DEN and NMOR group) | animals that developed evidence of hepatocellular carcinoma (Hepatocellular carcinoma; untreated group 8/9, p<0.0001) | animals that developed evidence of hepatocellular carcinoma (Hepatocellular carcinoma; untreated group 89%) [%] | microscopic and macroscopic appearance of hepatocellular carcinoma (Hepatocellular carcinoma; FIG. 10, DEN and NMOR group administered chloroquine) | HCC in Chloroquine treated (Hepatocellular carcinoma; Week 8th, DEN & NMOR alone 2/3) | HCC in Chloroquine treated (Hepatocellular carcinoma; Week 10th, DEN & NMOR alone 3/3) | HCC in Chloroquine treated (Hepatocellular carcinoma; Week 12th, DEN & NMOR alone 3/3) | size of the nodules ([1]; FIG. 11B, compared with controls) | tumour size [1] | tumour size ([1]; listed as chloroquine) | inhibition of cpg associated proliferation [2]
1 | CCn1cc(C(=O)O)c(=O)c2cc(F)c(N3CCNCC3)cc21 [norfloxacin] | 0-2 | minimal fibrosis | developed well-differentiated HCC except one | less nodules than the first group | – | – | – | – | – | – | – | – | – | –
2 | CCN(CC)CCCC(C)Nc1ccnc2cc(Cl)ccc12 (centres unmarked) [Chloroquine] | – | – | – | – | 1/10 | 10 | not seen; also recorded: no cancer was apparent either microscopically or macroscopically | 1/4 | 0/3 | 0/3 | significantly smaller | significant reduction | significantly less | significantly inhibited

From patent US20130315940A1, “TREATMENT OF LIVER CANCER” (priority 2010, published 2013)
